IC50 data for two compounds are collected here from patent US5260479A, “Inhibitors of farnesyl protein transferase” (Merck & Co., Inc., priority 1991, dated 1993).

For this experiment, the target named is T1, Farnesyl-protein transferase (FTase) (Bos taurus, UniProt P29702+P49355).
T1 construct: Farnesyl-protein transferase (FTase) from bovine brain was chromatographed; from tissue; host or cells: bovine brain
Description: In Vitro Inhibition of Ras Farnesyl Transferase (inhibition of Ras-CVLS farnesylation). It is filed as biochemical. To be noted: partially purified bovine brain FTase; Ras-CVLS 3.5 μM, 0.25 μM [3H]FPP. As to the method: Farnesyl-protein transferase (FTase) from bovine brain was chromatographed on DEAE-Sephacel (Pharmacia, 0-0.8M NaCl gradient elution), N-octyl agarose (Sigma, 0-0.6M NaCl gradient elution), and a mono Q HPLC column (Pharmacia, 0-0.3M NaCl gradient). Ras-CVLS at 3.5 μM, 0.25 μM [^3 H]FPP, and the indicated compounds were incubated with this partially purified enzyme preparation. The FTase inhibitory data presented below is a measurement of the ability of the test compound to inhibit Ras farnesylation in vitro.

Usually IC50 stands for the point on the concentration scale where inhibition reaches its midpoint. A higher IC50 goes with a need for much substance.

`CCCCCCCCCCCCCC/C(C(=O)O)=C(/C)C(=O)O` [A]: half-maximal inhibition (IC50) was put at 7.7 µM. `C=C(C(=O)O)C(CCCCCCCCCCCCCC)C(=O)O` (centres unmarked) [B] had an IC50 of 1.7 µM.
